The source of these data is patent US20120245137A1 (Zalicus Pharmaceuticals Ltd., priority 2009, published 2012).

Assay [1] has as its target human α1G T-type channels (Homo sapiens, UniProt O43497). The assay is described as follows: T-type calcium channel block, whole cell patch clamp, α1G. The class given is cell-based. To be noted: HEK cells stably expressing human α1G; mainly non-inactivated protocol; values above 10,000 nM represented as 10000. As for the experimental part: T-type calcium channel blocking activity was assayed in human embryonic kidneycells, HEK 293 (Invitrogen), stably transfected with the T-type calcium channel subunits. Briefly, cells were cultured in Dulbecco's modified eagle medium (DMEM) supplemented with 10% fetal bovine serum, 200 U/ml penicillin, and 0.2 mg/mL streptomycin at 37° C. with 5% CO2. At 85% confluency, cells were split with 0.25% trypsin/1 mM EDTA and plated at 10% confluency on glass coverslips. At 12 hours, the medium was replaced, and the cells stably transfected using a standard calcium phosphate protocol and the appropriate calcium channel cDNA's. Fresh DMEM was supplied, and the cells transferred to 28° C./5% CO2.
Standard patch-clamp techniques were employed to identify blockers of T-type currents. Briefly, previously described HEK cell lines stably expressing human α1G, α1H, and α1I T-type channels were used for all the recordings (passage #: 4-20, 37° C., 5% CO2). Whole cell patch clamp experiments were performed using an Axopatch 200B amplifier (Axon Instruments, Burlingame, Calif.) linked to a personal computer equipped with pCLAMP software. Data were analyzed using Clampfit (Axon Instruments) and SigmaPlot 4.0 (Jandel Scientific). To obtain T-type currents, plastic dishes containing semi-confluent cells were positioned on the stage of a ZEISS AXIOVERT S100 microscope after replacing the culture medium with external solution (Table 2). Whole-cell patches were obtained using pipettes (borosilicate glass with filament, O.D.: 1.5 mm, I.D.: 0.86 mm, 10 cm length), fabricated on a SUTTER P-97 puller with resistance values of ˜5 MΩ (Table 3).
T-type currents were reliably obtained by using two voltage protocols: • “non-inactivating,” and • “inactivation.”
Test compounds were dissolved in external solution, 0.1-0.01% DMSO. After ˜10 minutes rest, they were applied by gravity close to the cell using a WPI microfil tubing. The “non-inactivated” pre-pulse was used to examine the resting block of a compound. The “inactivated” protocol was employed to study voltage-dependent block.
On the technique in general: The patch-clamp technique gives a direct electrical read-out from membranes.

The target of assay [2] is N-type calcium channel subunits (α1B, α2δ, and β3a) (Homo sapiens, UniProt Q00975). The assay is described as follows: Block of Cav2.2 channel, whole cell voltage clamp, manual and PatchXpress. It is filed as cell-based. To be noted: Table 5; table follows Assay Example 3 (whole cell voltage clamp / PatchXpress); assay not given. An outline of the steps:
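Percent block taken as current amplitude ratio with versus without compound, applied in rising doses; IC50 fitted where one cell received multiple doses. Protocol: 50 ms pulses to +20 mV at 0.067 Hz from […] or −90 mV holding; P/n leak subtraction, no junction-potential correction; manual and PatchXpress recordings.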

In general, IC50 refers to the midpoint of a concentration-inhibition curve.

Where only a bound is given, the exact number is not on record here.

human α1G T-type channels, sequence (O43497 whole entry): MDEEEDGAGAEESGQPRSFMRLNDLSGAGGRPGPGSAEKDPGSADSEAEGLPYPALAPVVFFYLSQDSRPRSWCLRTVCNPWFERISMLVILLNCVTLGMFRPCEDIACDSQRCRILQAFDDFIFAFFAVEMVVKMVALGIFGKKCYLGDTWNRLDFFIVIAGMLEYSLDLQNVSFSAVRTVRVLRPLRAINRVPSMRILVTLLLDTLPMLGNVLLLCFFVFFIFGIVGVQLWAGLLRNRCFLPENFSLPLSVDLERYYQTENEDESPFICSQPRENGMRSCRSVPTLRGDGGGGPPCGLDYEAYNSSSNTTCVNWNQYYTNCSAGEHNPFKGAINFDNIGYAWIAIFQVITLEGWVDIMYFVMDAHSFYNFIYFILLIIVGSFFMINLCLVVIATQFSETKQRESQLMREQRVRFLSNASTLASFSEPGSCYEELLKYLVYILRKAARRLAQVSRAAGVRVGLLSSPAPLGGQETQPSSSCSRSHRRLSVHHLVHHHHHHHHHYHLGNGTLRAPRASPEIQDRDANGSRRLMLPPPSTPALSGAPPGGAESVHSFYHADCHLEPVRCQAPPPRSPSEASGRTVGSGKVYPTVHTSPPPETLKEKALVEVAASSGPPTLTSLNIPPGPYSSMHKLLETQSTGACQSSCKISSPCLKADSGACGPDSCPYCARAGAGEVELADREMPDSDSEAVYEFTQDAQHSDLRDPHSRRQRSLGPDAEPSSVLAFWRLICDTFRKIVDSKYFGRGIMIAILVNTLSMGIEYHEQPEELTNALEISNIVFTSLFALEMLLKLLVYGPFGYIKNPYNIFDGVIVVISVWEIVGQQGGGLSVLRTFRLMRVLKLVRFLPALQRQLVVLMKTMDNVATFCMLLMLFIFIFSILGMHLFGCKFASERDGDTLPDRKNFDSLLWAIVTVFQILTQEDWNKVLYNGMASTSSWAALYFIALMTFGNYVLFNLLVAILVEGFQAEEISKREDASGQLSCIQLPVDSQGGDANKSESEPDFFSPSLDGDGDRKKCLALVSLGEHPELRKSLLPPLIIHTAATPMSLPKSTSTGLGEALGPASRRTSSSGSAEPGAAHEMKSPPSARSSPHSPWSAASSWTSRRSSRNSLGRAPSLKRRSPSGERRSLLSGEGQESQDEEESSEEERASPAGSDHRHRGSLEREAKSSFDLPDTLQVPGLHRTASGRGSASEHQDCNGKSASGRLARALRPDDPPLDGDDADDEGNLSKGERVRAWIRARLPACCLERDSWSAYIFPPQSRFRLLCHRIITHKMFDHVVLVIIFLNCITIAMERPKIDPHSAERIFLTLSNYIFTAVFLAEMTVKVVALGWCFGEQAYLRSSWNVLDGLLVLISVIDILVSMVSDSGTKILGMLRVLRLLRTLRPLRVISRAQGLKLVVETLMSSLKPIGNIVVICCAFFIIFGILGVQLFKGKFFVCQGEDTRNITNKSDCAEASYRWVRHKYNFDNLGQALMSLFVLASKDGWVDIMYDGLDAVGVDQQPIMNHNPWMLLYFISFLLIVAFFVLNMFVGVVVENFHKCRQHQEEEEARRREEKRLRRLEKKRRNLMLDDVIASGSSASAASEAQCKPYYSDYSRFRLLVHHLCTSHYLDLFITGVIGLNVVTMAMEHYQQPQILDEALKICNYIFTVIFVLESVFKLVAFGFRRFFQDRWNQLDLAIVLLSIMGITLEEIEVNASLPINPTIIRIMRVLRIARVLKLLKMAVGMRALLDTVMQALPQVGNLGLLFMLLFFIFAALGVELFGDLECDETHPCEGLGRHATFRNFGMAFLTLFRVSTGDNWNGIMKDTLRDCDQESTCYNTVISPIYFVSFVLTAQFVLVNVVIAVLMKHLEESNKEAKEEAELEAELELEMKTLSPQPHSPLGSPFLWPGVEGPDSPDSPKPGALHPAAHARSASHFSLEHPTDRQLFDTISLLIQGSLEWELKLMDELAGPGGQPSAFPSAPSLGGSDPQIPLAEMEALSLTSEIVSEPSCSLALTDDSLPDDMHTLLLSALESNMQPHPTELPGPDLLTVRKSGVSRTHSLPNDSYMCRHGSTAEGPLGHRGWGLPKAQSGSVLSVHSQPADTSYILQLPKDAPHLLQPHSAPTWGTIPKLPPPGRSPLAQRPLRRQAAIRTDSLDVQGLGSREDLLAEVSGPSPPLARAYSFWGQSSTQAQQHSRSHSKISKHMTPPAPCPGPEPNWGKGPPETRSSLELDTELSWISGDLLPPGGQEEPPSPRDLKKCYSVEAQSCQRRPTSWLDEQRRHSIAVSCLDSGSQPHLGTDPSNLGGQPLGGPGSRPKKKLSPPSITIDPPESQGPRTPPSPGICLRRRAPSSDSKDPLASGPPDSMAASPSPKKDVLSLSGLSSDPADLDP

For `COc1cc(C(=O)N[C@H]2CC[C@@](F)(S(=O)(=O)c3cccc(C(F)(F)F)c3)CC2)cc(Cl)n1` [Compound 242, 2-chloro-N-((1S,4S)-4-fluoro-4-(3-(trifluoromethyl)phenylsulfonyl)cyclohexyl)-6-methoxyisonicotinamide], the IC50 in assay [1] was determined as 4300 nM; in assay [2], 110 nM.
Consider `Cc1cc(C(=O)N[C@H]2CC[C@@](F)(S(=O)(=O)c3cccc(C(F)(F)F)c3)CC2)c(C(F)(F)F)o1` [Compound 243], for which the figures for the IC50 in assay [1] and in assay [2] were 4450 nM and 60 nM, respectively.
`O=C(N[C@H]1CC[C@@](F)(S(=O)(=O)c2cccc(C(F)(F)F)c2)CC1)c1ccc(F)c(Cl)c1` [Compound 238, 3-chloro-4-fluoro-N-((1S,4S)-4-fluoro-4-(3-(trifluoromethyl)phenylsulfonyl)cyclohexyl)benzamide]: the IC50 in assay [1] was 2780 nM; in assay [2], 90 nM.
Consider `O=C(Nc1ccc(Oc2ccc(F)cc2)nc1)[C@H]1C[C@H](S(=O)(=O)c2cccc(C(F)(F)F)c2)C1` [Compound 405, (1R,3R)-N-(6-(4-fluorophenoxy)pyridin-3-yl)-3-(3-(trifluoromethyl)phenylsulfonyl)cyclobutane carboxamide], for which the results for the IC50 in assay [1] and in assay [2] were more than 10000 nM and 1300 nM, respectively.
For `CC1(CNC(=O)c2ccc(C(F)(F)F)cc2S(C)(=O)=O)CCC(F)(S(=O)(=O)c2cccc(C(F)(F)F)c2)CC1` (stereo not drawn) [Compound 155, N-((4-fluoro-1-methyl-4-(3-(trifluoromethyl)phenylsulfonyl)cyclohexyl)methyl)-2-(methylsulfonyl)-4-(trifluoromethyl)benzamide], in that order: 960 nM and 540 nM.
As for `O=C(NC[C@]1(O)CC[C@@H](S(=O)(=O)c2cccc(C(F)(F)F)c2)CC1)c1cc(F)cc(Cl)c1` [Compound 228, 3-chloro-5-fluoro-N-(((1S,4S)-1-hydroxy-4-(3-(trifluoromethyl)phenylsulfonyl)cyclohexyl)methyl)benzamide], the IC50 in assay [1] was 330 nM; in assay [2], 740 nM.
For `CC1(CNC(=O)c2ccc(C(F)(F)F)nc2)CCC(S(=O)(=O)c2cccc(C(F)(F)F)c2)CC1` (stereo not drawn) [Compound 213, N-((1-methyl-4-(3-(trifluoromethyl)phenylsulfonyl)cyclohexyl)methyl)-6-(trifluoromethyl)nicotinamide], the IC50 was found to be 940 nM in assay [1] and 620 nM in assay [2].
As to `Cn1nc(C(F)(F)F)cc1C(=O)N[C@H]1CC[C@@](F)(S(=O)(=O)c2cccc(C(F)(F)F)c2)CC1` [Compound 241, N-((1S,4S)-4-fluoro-4-(3-(trifluoromethyl)phenylsulfonyl)cyclohexyl)-1-methyl-3-(trifluoromethyl)-1H-pyrazole-5-carboxamide], the figures for the IC50 in assay [1] and in assay [2] were 1450 nM and 130 nM, respectively.
Regarding `O=C(N[C@H]1CC[C@@](F)(S(=O)(=O)c2cccc(C(F)(F)F)c2)CC1)c1ccnc(C(F)(F)F)c1` [Compound 246], the IC50 in assay [1] stood at 1720 nM; in assay [2], 130 nM.
For `O=S(=O)(NC[C@H]1C[C@H](S(=O)(=O)c2cccc(C(F)(F)F)c2)C1)c1ccccc1C(F)(F)F` [Compound 426, 2-(trifluoromethyl)-N-(((1R,3R)-3-(3-(trifluoromethyl)phenylsulfonyl)cyclobutyl)methyl)benzenesulfonamide], the values for the IC50 in assay [1] and in assay [2] were more than 10000 nM and 1140 nM, respectively.
In the case of `O=C(N[C@H]1CC[C@@](F)(S(=O)(=O)c2cccc(C(F)(F)F)c2)CC1)c1ccnn1CC(F)(F)F` [Compound 245, N-((1S,4S)-4-fluoro-4-(3-(trifluoromethyl)phenylsulfonyl)cyclohexyl)-1-(2,2,2-trifluoroethyl)-1H-pyrazole-5-carboxamide], the IC50 in assay [1] was 3810 nM; in assay [2] it was 130 nM.
As for `CC1(CNC(=O)c2ccc(C(F)(F)F)cn2)CCC(F)(S(=O)(=O)c2cccc(C(F)(F)F)c2)CC1` (stereo not drawn) [Compound 152, N-((4-fluoro-1-methyl-4-(3-(trifluoromethyl)phenylsulfonyl)cyclohexyl)methyl)-5-(trifluoromethyl)picolinamide], the values for the IC50 in assay [1] and in assay [2] were 3600 nM and 550 nM, respectively.
The matching figures for `O=C(NC[C@]1(O)CC[C@@H](S(=O)(=O)c2cccc(C(F)(F)F)c2)CC1)c1ccc(F)c(C(F)(F)F)c1` [Compound 234, 4-fluoro-N-(((1S,4S)-1-hydroxy-4-(3-(trifluoromethyl)phenylsulfonyl)cyclohexyl)methyl)-3-(trifluoromethyl)benzamide]: 2120 nM and 870 nM.
For `CC(C)(C)NC(=O)CNC[C@H]1C[C@H](S(=O)(=O)c2cccc(C(F)(F)F)c2)C1` [Compound 359, N-tert-butyl-2-(((1R,3R)-3-(3-(trifluoromethyl)phenylsulfonyl)cyclobutyl)methylamino)acetamide], in that order: 5420 nM and 1610 nM.
For `CC1(CNC(=O)c2ccc(F)c(Cl)c2)CCC(F)(S(=O)(=O)c2cccc(C(F)(F)F)c2)CC1` (stereo not drawn) [Compound 153, 3-chloro-4-fluoro-N-((4-fluoro-1-methyl-4-(3-(trifluoromethyl)phenylsulfonyl)cyclohexyl)methyl)benzamide], in that order: 5230 nM and 500 nM.
Consider `CC1(CNC(=O)c2cc(F)cc(Cl)c2)CCC(F)(S(=O)(=O)c2cccc(C(F)(F)F)c2)CC1` (stereo not drawn) [Compound 154, 3-chloro-5-fluoro-N-((4-fluoro-1-methyl-4-(3-(trifluoromethyl)phenylsulfonyl)cyclohexyl)methyl)benzamide], for which the IC50 in assay [1] was 3600 nM; in assay [2] it was 450 nM.
Consider `Cn1nc(C(F)(F)F)cc1C(=O)NCC1(C)CCC(F)(S(=O)(=O)c2cccc(C(F)(F)F)c2)CC1` (stereo not drawn) [Compound 151, N-((4-fluoro-1-methyl-4-(3-(trifluoromethyl)phenylsulfonyl)cyclohexyl)methyl)-l-methyl-3-(trifluoromethyl)-1H-pyrazole-5-carboxamide], for which the IC50 in assay [1] is 2900 nM; in assay [2], 580 nM.
`CN(CC(=O)N[C@H]1CC[C@H](CS(=O)(=O)c2cccc(C(F)(F)F)c2)CC1)C1CCCCC1` [Compound 163]: the IC50 in assay [1] was more than 10000 nM; in assay [2], 470 nM.
For `CC(C)(C)S(=O)(=O)c1ccsc1C(=O)N[C@H]1CC[C@@](F)(S(=O)(=O)c2cccc(C(F)(F)F)c2)CC1` [Compound 244, 3-(tert-butylsulfonyl)-N-((1S,4S)-4-fluoro-4-(3-(trifluoromethyl)phenylsulfonyl)cyclohexyl)thiophene-2-carboxamide], in that order: 3570 nM and 40 nM.
As for `CS(=O)(=O)c1cc(C(F)(F)F)ccc1C(=O)N[C@H]1CC[C@@](F)(S(=O)(=O)c2cccc(C(F)(F)F)c2)CC1` [Compound 239, N-((1S,4S)-4-fluoro-4-(3-(trifluoromethyl)phenylsulfonyl)cyclohexyl)-2-(methylsulfonyl)-4-(trifluoromethyl)benzamide], the IC50 in assay [1] worked out at 1610 nM; in assay [2] it was 340 nM.
“4-(trifluoromethyl)-N-((1R,4R)-4- ((3- (trifluoromethyl)phenylsulfonyl) methyl)cyclohexyl)picolinamide [Compound 103]”: the results for the IC50 in assay [1] and in assay [2] were more than 10000 nM and 460 nM, respectively.
